Laboratory results as given in ChEMBL document CHEMBL4699412, “Understanding the mechanism of action of pyrrolo[3,2-b]quinoxaline-derivatives as kinase inhibitors” (RSC Med Chem, 2020).

Key:
[1] = target: Tyrosine-protein kinase Lyn (Homo sapiens) (UniProt P07948); assay: Inhibition of wild-type human partial length LYN (C219 to Q511 residues) expressed in bacterial expression system at 1 uM by Kinomescan method relative to control
[2] = target: Tyrosine-protein kinase Yes (Homo sapiens) (UniProt P07947); assay: Inhibition of wild-type human partial length YES (T257 to L543 residues) expressed in bacterial expression system at 1 uM by Kinomescan method relative to control
Sequence of Tyrosine-protein kinase Yes (Homo sapiens) (P07947 2-543 limits assumed): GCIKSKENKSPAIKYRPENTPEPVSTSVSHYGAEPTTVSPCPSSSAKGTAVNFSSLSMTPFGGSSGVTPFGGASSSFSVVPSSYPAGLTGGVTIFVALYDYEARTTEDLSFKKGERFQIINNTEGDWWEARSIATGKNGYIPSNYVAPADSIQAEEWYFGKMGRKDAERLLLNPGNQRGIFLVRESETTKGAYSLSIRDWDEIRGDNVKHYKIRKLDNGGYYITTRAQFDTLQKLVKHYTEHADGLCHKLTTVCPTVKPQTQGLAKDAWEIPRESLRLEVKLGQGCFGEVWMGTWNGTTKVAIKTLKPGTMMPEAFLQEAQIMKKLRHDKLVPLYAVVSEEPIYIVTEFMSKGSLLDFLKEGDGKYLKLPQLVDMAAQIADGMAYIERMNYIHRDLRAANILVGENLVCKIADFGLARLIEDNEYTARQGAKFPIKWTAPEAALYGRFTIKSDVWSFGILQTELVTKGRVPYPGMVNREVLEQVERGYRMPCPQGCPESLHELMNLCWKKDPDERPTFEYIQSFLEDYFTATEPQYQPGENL

[3] = target: Tyrosine-protein kinase BTK (Homo sapiens) (UniProt Q06187); assay: Inhibition of wild-type human full length BTK (M1 to S659 residues) expressed in mammalian expression system at 1 uM by Kinomescan method relative to control
Sequence of Tyrosine-protein kinase BTK (Homo sapiens) (Q06187 whole entry, the tested form may be a part): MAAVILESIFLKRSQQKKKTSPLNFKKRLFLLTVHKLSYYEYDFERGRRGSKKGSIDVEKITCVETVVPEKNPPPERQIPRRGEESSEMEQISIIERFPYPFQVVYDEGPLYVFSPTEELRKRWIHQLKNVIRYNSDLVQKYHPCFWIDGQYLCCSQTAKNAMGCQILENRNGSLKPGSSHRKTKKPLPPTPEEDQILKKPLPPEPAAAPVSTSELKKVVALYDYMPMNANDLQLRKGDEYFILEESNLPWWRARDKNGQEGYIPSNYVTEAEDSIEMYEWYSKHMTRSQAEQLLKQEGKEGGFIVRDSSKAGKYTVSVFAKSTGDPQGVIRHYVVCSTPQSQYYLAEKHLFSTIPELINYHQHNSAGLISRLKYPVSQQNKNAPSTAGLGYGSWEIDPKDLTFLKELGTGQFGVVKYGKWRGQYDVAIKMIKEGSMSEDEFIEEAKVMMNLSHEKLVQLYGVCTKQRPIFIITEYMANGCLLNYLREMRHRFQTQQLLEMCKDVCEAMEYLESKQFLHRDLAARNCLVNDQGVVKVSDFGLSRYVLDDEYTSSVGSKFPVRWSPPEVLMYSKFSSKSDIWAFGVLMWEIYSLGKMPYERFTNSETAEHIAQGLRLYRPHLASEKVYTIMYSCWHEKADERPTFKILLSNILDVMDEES

[4] = target: Tyrosine-protein kinase CSK (Homo sapiens) (UniProt P41240); assay: Inhibition of wild-type human full length CSK (M1 to L450 residues) expressed in bacterial expression system at 1 uM by Kinomescan method relative to control
Sequence of Tyrosine-protein kinase CSK (Homo sapiens) (P41240 2-450 limits assumed): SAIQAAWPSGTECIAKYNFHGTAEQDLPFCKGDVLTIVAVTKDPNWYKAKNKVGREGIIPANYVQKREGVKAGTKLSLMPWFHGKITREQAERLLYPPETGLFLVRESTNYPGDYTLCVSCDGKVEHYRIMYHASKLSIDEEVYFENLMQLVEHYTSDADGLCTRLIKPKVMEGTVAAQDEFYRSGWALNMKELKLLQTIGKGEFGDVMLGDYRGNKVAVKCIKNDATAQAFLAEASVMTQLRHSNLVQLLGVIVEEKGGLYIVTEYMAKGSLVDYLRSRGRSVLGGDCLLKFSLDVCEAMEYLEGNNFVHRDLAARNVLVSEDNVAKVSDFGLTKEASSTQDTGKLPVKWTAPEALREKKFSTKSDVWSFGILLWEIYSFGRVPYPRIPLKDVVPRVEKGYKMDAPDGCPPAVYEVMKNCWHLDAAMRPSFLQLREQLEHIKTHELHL

[5] = target: T1, Ephrin type-A receptor 3 (Homo sapiens) (UniProt P29320); assay: Binding affinity to EPHA3 (unknown origin) assessed as increase in change in melting temperature by differential scanning fluorimetric analysis
T1 sequence (whole entry): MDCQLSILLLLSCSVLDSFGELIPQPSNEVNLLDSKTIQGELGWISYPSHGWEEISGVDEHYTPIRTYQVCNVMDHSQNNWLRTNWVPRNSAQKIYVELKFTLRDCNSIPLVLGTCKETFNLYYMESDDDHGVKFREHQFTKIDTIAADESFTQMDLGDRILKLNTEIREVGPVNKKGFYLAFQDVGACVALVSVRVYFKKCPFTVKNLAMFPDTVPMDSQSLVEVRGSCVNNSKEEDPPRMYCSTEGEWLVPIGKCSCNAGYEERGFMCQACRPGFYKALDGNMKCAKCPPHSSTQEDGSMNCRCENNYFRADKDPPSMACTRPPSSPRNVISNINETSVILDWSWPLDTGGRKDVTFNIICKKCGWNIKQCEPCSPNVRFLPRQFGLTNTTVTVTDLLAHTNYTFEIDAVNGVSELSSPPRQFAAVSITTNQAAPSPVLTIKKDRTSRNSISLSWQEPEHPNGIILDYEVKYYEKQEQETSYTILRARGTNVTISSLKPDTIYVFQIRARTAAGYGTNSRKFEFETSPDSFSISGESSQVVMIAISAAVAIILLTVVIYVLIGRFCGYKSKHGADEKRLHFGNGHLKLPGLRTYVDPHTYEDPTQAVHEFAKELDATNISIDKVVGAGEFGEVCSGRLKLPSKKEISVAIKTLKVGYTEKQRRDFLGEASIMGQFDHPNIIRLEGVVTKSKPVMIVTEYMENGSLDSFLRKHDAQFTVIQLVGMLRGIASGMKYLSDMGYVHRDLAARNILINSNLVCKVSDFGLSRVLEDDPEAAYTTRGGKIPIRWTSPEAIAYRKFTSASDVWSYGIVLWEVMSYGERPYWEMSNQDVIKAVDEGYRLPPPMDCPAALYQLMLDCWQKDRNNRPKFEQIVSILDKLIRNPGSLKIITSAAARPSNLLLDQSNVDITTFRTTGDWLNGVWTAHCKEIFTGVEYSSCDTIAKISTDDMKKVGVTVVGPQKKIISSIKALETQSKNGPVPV

[6] = target: T2, Ephrin type-B receptor 4 (Homo sapiens, UniProt P54760); assay: Inhibition of full-length human EPHB4 expressed in MEF cells assessed as autophosphorylation by sandwitch-ELISA; assay type: cell-based
T2 sequence (P54760 whole entry): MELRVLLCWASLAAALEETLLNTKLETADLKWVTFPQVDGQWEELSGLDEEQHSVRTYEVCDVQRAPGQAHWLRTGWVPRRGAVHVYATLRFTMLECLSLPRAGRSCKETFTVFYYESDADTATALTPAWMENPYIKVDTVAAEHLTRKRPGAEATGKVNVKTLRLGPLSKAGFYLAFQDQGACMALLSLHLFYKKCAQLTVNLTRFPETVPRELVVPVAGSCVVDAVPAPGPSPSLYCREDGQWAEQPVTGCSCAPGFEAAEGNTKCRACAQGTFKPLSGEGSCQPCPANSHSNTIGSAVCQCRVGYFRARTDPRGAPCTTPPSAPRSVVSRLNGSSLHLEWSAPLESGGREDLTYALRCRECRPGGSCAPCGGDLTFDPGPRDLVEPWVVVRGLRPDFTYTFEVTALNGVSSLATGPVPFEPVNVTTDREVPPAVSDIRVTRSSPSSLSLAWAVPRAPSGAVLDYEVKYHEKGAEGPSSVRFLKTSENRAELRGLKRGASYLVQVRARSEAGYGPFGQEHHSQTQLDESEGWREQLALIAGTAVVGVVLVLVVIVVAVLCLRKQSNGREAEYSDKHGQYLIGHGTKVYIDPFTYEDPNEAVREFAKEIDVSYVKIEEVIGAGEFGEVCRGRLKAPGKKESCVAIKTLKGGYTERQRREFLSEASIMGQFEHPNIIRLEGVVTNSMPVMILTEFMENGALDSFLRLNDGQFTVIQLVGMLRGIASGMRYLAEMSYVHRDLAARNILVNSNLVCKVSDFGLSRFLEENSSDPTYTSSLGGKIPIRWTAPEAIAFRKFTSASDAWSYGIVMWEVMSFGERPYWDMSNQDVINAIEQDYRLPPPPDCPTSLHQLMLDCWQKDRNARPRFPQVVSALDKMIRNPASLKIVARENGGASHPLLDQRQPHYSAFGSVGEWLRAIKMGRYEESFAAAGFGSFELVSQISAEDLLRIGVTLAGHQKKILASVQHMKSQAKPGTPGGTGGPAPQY

[7] = Toxicity in NOD-SCID nude mouse xenografted with human Ri1 cells assessed as swelling surrounding the area of injection at 100 mg/kg, ip; assay type: organism-based; details: in vivo
[8] = Toxicity in NOD-SCID nude mouse xenografted with human Ri1 cells assessed as body weight loss at 100 mg/kg, ip; assay type: organism-based; details: in vivo
[9] = test system: HUVEC; assay: Antiangiogenic activity against HUVEC cells assessed as reduction in tube formation incubated for 15 hrs by matrigel-based assay relative to control; assay type: functional, Homo sapiens
[10] = test system: HUVEC; assay: Antiangiogenic activity against HUVEC cells assessed as reduction in total branching points incubated for 15 hrs by matrigel-based assay relative to control; assay type: functional, Homo sapiens
[11] = test system: HUVEC; assay: Antiangiogenic activity against HUVEC cells assessed as reduction in total loops incubated for 15 hrs by matrigel-based assay relative to control; assay type: functional, Homo sapiens
[12] = cells; details: Homo sapiens, SU-DHL-1, 72 h
[13] = test system: Maver1; assay: cells; details: Homo sapiens, Maver1, 72 h
[14] = test system: JeKo-1; assay: cells; details: Homo sapiens, JeKo-1, 72 h
[15] = cells; details: Homo sapiens, MEC1, 72 h
[16] = cells; details: Homo sapiens, PCL12, 72 h
[17] = cells; details: Homo sapiens, Ri-1, 72 h
[18] = Antitumor activity against human Ri1 cells xenografted in NOD-SCID mouse assessed as fold change in tumor size at 100 mg/kg, ip administered for 2 weeks by caliper method relative to control; assay type: functional, Ri-1
[19] = Toxicity in NOD-SCID nude mouse xenografted with human Ri1 cells assessed as body weight loss at 100 mg/kg, ip once every 5 days; details: in vivo, 360 h

Sequence of Tyrosine-protein kinase Lyn (Homo sapiens) (P07948 2-512 limits assumed): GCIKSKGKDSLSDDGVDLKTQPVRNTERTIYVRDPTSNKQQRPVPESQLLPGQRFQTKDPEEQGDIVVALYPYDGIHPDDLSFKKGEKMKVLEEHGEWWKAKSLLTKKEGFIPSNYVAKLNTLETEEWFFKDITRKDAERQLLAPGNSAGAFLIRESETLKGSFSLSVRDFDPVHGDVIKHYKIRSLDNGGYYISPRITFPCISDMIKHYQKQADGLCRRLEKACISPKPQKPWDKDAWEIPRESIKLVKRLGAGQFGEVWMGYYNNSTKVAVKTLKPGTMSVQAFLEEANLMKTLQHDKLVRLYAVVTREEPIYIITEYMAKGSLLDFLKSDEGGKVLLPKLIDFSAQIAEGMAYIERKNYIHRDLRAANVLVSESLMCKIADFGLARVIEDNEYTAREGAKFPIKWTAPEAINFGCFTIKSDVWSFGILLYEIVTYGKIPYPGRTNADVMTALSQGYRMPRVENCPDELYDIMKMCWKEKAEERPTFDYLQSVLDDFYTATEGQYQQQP

Row | SMILES | % control [1] [%] | % control [2] [%] | % control [3] [%] | % control [4] [%] | ΔTm [5] [°C] | EC50 [6] [nM] | Activity [7] | Activity [8] | inhibition (INH) [9] [%] | inhibition (INH) [10] [%] | inhibition (INH) [11] [%] | IC50 [12] [nM] | IC50 [13] [nM] | IC50 [14] [nM] | IC50 [15] [nM] | IC50 [16] [nM] | IC50 [17] [nM] | fold change (FC) [18] | Activity [19]
1 | Cc1ccc(-n2nc(C(C)(C)C)cc2NC(=O)Nc2ccc(-n3c(N)c(C(N)=O)c4nc5ccc(NCCCN)cc5nc43)cc2)cc1 | 0.5 | 1.9 | 3.3 | 0.65 | – | – | – | – | – | – | – | – | – | – | – | – | – | – | –
2 | Cc1ccc(-n2nc(C(C)(C)C)cc2NC(=O)Nc2ccc(-n3c(N)c(C(N)=O)c4nc5ccccc5nc43)cc2)cc1 | 0.85 | 9.6 | 0.95 | 0.9 | 17.3 | 360 | Toxic | Toxic | 65 | 90 | 100 | 600 | 600 | 600 | 600 | 600 | 600 | – | –
3 | CC(C)(C)c1cc(NC(=O)Nc2ccc(-n3c(N)c(C(N)=O)c4nc5ccccc5nc43)cc2)n(-c2ccc3ncccc3c2)n1 | – | – | – | – | 19.3 | 1100 | – | – | – | – | – | 250 | 250 | 250 | 250 | 250 | 250 | 3 | Non-Toxic
